Results reported in PMC6195125 (European journal of medicinal chemistry, 2018).
Read-outs that look alike come from different tables or passages of the source.

What was measured:
[1] = tested on: P. falciparum; details: read-out: P. falciparum IC50; in vitro; cited from earlier work
[2] = tested on: P. falciparum stage V gametocytes; assay: ATP bioluminescence assay, mature gametocytes; assay type: cell-based, Plasmodium falciparum; details: read-out: Pf stage V gametocytes IC50
[3] = tested on: HepG2-A16-CD81EGFP cells; assay: HepG2 cytotoxicity bioluminescence assay; assay type: cell-based, human; details: read-out: HepG2 IC50
[4] = tested on: P. berghei exo-erythrocytic forms (EEF); assay type: cell-based, Plasmodium berghei; details: read-out: Pb EEF IC50; P. berghei-Luc in HepG2-A16-CD81EGFP cells, 48 h
[5] = tested on: P. falciparum 3D7; assay type: cell-based; details: Plasmodium falciparum, 3D7, read-out: P.falciparum IC50 Pf3D7
[6] = tested on: P. falciparum Dd2; assay: microbe, parasite or virus in culture; assay type: cell-based; details: Plasmodium falciparum, DD2, read-out: P.falciparum IC50 PfDd2
[7] = tested on: normal human neonatal foreskin fibroblasts (NFFs); assay: Cytotoxicity against neonatal foreskin fibroblasts; assay type: cell-based; details: Fibroblast, read-out: NFF IC50
[8] = tested on: mammalian cell; details: read-out: Cytotoxicity IC50; cited from earlier work
[9] = tested on: P. falciparum NF54 late stage gametocytes (IV-V); assay: Imaging-based viability assay, late stage gametocytes; assay type: cell-based; details: Plasmodium falciparum, NF54, read-out: Pf LSG inhibition at 40 μM

For CC(/C=C/C(=O)NO)=C\[C@@H](C)C(=O)c1ccc(N(C)C)cc1 [Trichostatin A (TSA), Trichostatin A], the IC50 [1] is listed as 8 to 11 nM.
With CN(C)c1ccc2nc3ccc(N(C)C)cc3[s+]c2c1 [methylene blue] the IC50 ([2]; Plasmodium falciparum, 48 h) was 210000 nM.
O=C1C(O)=C([C@H]2CC[C@H](c3ccc(Cl)cc3)CC2)C(=O)c2ccccc21 [ATQ, Atovaquone] showed an IC50 ([3]; Homo sapiens, HepG2, 48 h) of over 500 nM.
With “Methyl 4-((3,5-dimethyl-N-(2-oxo-2-(p-tolylamino)ethyl)benzamido)methyl)benzoate [Compound 1m]” the IC50 ([3]; Table 4) was 21400 nM, the IC50 ([3]; Table 7 and text, 48 h) was 21400 nM and the IC50 ([2]; ATP assay, 48 h incubation) was 10100 ± 3720 nM. The IC50 [4] was 5550 nM.
Work on CCN(CC)CCCC(C)Nc1ccnc2cc(Cl)ccc12 (centres unmarked) [CQ, chloroquine] yielded an IC50 [5] of 11 nM and an IC50 [6] of 49 nM.
In the case of Cc1ccc(NC(=O)CN(Cc2ccc(C(=O)NO)cc2)C(=O)c2cccc3ccccc23)cc1 [Compound 1k], the IC50 [7] is reported as over 10000 nM.
For O=C(/C=C/c1cccc(S(=O)(=O)Nc2ccccc2)c1)NO [Belinostat], the IC50 [1] is given as 60 to 130 nM and the IC50 [8] is given as 1420 to 2370 nM.
For Cc1[nH]c2ccccc2c1CCNCc1ccc(/C=C/C(=O)NO)cc1 [Panobinostat], the IC50 [1] is listed as 10 to 30 nM and the IC50 [8] is listed as 70 to 180 nM.
In the case of CCC(=O)CCCCC[C@@H]1NC(=O)[C@H]2CCCCN2C(=O)[C@H]([C@@H](C)CC)NC(=O)[C@H](Cc2cn(OC)c3ccccc23)NC1=O [Apicidin], the IC50 [1] is given as 200 nM and the IC50 [8] is given as 50 to 100 nM.
In the case of O=C(CN(Cc1ccc(C(=O)NO)cc1)C(=O)c1cccc2ccccc12)NC1CCCCC1 [Compound 1g], the inhibition at 40 µM [9] is reported as 97%.
